From patent US9284321B2, “Piperazino[1,2-a]indol-1-ones and [1,4]diazepino[1,2-a]indol-1-one” (Hoffmann-La Roche Inc., priority 2012, dated 2016)

Experiments:
[1] = tested on: human embryonic stem cell derived neural stem cells (NSCs); test: Neural Stem Cell Proliferation Assay (neurogenesis assay, ATP levels by CellTiterGlo); format: cell-based; conditions: 96 h, compound concentration at which 150% activity of control (100%) is reached, NSC proliferation by ATP level after 4 days incubation, dose response 8 μM to 8 nM
Outline: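 Human ESC-derived NSCs (dual SMAD inhibition) seeded 4 h before compounds, 11-point 2-fold series 8 μM–8 nM; 4 days at 37 °C, 5% CO2. ATP by CellTiterGlo luminescence as cell-number proxy, response as % of media control (0.25% DMSO); EC150 = concentration giving 150% of control.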

| melting point [°C] | SMILES | EC (150% of control) [1] [µM] |
| --- | --- | --- |
| 246 | COc1cc(-c2ccc(Cl)cc2)c2c(c1)cc1n2CCNC1=O [Example 211, 6-(4-Chlorophenyl)-8-methoxy-3,4-dihydro-2H-pyrazino[1,2-a]indol-1-one] | 1.54 |
| 216 | COc1cc(-c2ccc(F)c(F)c2)c2c(c1)cc1n2CCNC1=O [Example 212, 6-(3,4-Difluorophenyl)-8-methoxy-3,4-dihydro-2H-pyrazino[1,2-a]indol-1-one] | 1.24 |
| 276 | COc1cc(-c2ccc(C(F)(F)F)cc2)c2c(c1)cc1n2CCNC1=O [Example 213, 8-Methoxy-6-[4-(trifluoromethyl)-phenyl]-3,4-dihydro-2H-pyrazino[1,2-a]indol-1-one] | 0.8 |
| 245.5 | N#Cc1cc(-c2ccc(Cl)cc2)c2c(c1)cc1n2CCCNC1=O [Example 214, 7-(4-Chlorophenyl)-1-oxo-2,3,4,5-tetrahydro-[1,4]diazepino[1,2-a]indole-9-carbonitrile] | 0.14 |
| 230 | N#Cc1cc(-c2ccc(F)cc2)c2c(c1)cc1n2CCCNC1=O [Example 215, 7-(4-Fluorophenyl)-1-oxo-2,3,4,5-tetrahydro-[1,4]diazepino[1,2-a]indole-9-carbonitrile] | 0.09 |
| 243 | O=C1NCCn2c1cc1cc(OC(F)(F)F)cc(-c3ccc(C(F)(F)F)cc3)c12 [Example 216, 8-(Trifluoromethoxy)-6-[4-(trifluoromethyl)-phenyl]-3,4-dihydro-2H-pyrazino[1,2-a]indol-1-one] | 0.022 |
| 224.5 | N#Cc1cc(-c2ccc(F)c(F)c2)c2c(c1)cc1n2CCCNC1=O [Example 217, 7-(3,4-Difluorophenyl)-1-oxo-2,3,4,5-tetrahydro-[1,4]diazepino[1,2-a]indole-9-carbonitrile] | 0.51 |
| 241.5 | N#Cc1cc(-c2ccc(C(F)(F)F)cc2)c2c(c1)cc1n2CCCNC1=O [Example 218, 1-Oxo-7-[4-(trifluoromethyl)-phenyl]-2,3,4,5-tetrahydro-[1,4]diazepino[1,2-a]indole-9-carbonitrile] | 0.45 |
| 217.5 | N#Cc1cc(-c2ccc(Cl)cc2F)c2c(c1)cc1n2CCCNC1=O [Example 219, 7-(4-Chloro-2-fluorophenyl)-1-oxo-2,3,4,5-tetrahydro-[1,4]diazepino[1,2-a]indole-9-carbonitrile] | 0.08 |
| 275 | N#Cc1cc(-c2ccnc(F)c2)c2c(c1)cc1n2CCCNC1=O [Example 220, 7-(2-Fluoropyridin-4-yl)-1-oxo-2,3,4,5-tetrahydro-[1,4]diazepino[1,2-a]indole-9-carbonitrile] | 0.5 |
| 216.5 | N#Cc1cc(-c2ccc(F)cc2F)c2c(c1)cc1n2CCCNC1=O [Example 221, 7-(2,4-Difluorophenyl)-1-oxo-2,3,4,5-tetrahydro-[1,4]diazepino[1,2-a]indole-9-carbonitrile] | 0.073 |
| 264 | N#Cc1cc(-c2cc(F)cc(F)c2)c2c(c1)cc1n2CCNC1=O [Example 222, 6-(3,5-Difluorophenyl)-1-oxo-3,4-dihydro-2H-pyrazino[1,2-a]indole-8-carbonitrile] | 0.22 |
| 248.5 | N#Cc1cc(-c2cccc(F)c2)c2c(c1)cc1n2CCNC1=O [Example 223, 6-(3-Fluorophenyl)-1-oxo-3,4-dihydro-2H-pyrazino[1,2-a]indole-8-carbonitrile] | 0.076 |
| 305 | N#Cc1cc(-c2ccc(N)nc2)c2c(c1)cc1n2CCNC1=O [Example 224, 6-(6-Aminopyridin-3-yl)-1-oxo-3,4-dihydro-2H-pyrazino[1,2-a]indole-8-carbonitrile] | 0.76 |
| 323.5 | N#Cc1cc(-c2cncnc2)c2c(c1)cc1n2CCNC1=O [Example 225, 1-Oxo-6-pyrimidin-5-yl-3,4-dihydro-2H-pyrazino[1,2-a]indole-8-carbonitrile] | 1.75 |
| 300.5 | N#Cc1cc(-c2ccc(Cl)nc2)c2c(c1)cc1n2CCNC1=O [Example 226, 6-(6-Chloropyridin-3-yl)-1-oxo-3,4-dihydro-2H-pyrazino[1,2-a]indole-8-carbonitrile] | 2.2 |
| 286 | N#Cc1cc(-c2ccnc(Cl)c2)c2c(c1)cc1n2CCNC1=O [Example 227, 6-(2-Chloropyridin-4-yl)-1-oxo-3,4-dihydro-2H-pyrazino[1,2-a]indole-8-carbonitrile] | 0.55 |
| 257.5 | N#Cc1cc(-c2ccc(CO)cc2)c2c(c1)cc1n2CCNC1=O [Example 228, 6-[4-(Hydroxymethyl)-phenyl]-1-oxo-3,4-dihydro-2H-pyrazino[1,2-a]indole-8-carbonitrile] | 0.041 |
| 272.5 | N#Cc1cc(-c2cccnc2)c2c(c1)cc1n2CCNC1=O [Example 229, 1-Oxo-6-pyridin-3-yl-3,4-dihydro-2H-pyrazino[1,2-a]indole-8-carbonitrile] | 0.94 |
| 300 | CC(C)(C)c1ccc(-c2cc(C#N)cc3cc4n(c23)CCNC4=O)cc1 [Example 230, 6-(4-tert-Butylphenyl)-1-oxo-3,4-dihydro-2H-pyrazino[1,2-a]indole-8-carbonitrile] | 0.14 |
| 290 | Cc1cc(-c2cc(C#N)cc3cc4n(c23)CCNC4=O)ccc1F [Example 231, 6-(4-Fluoro-3-methylphenyl)-1-oxo-3,4-dihydro-2H-pyrazino[1,2-a]indole-8-carbonitrile] | 0.058 |
| 369.5 | N#Cc1cc(-c2ccc([N+](=O)[O-])cc2)c2c(c1)cc1n2CCNC1=O [Example 232, 6-(4-Nitrophenyl)-1-oxo-3,4-dihydro-2H-pyrazino[1,2-a]indole-8-carbonitrile] | 0.02 |
| 278.5 | Cc1ccc(-c2cc(C#N)cc3cc4n(c23)CCNC4=O)cc1F [Example 233, 6-(3-Fluoro-4-methylphenyl)-1-oxo-3,4-dihydro-2H-pyrazino[1,2-a]indole-8-carbonitrile] | 0.052 |
| 193.5 | N#Cc1cc(-c2ccc([N+](=O)[O-])cc2)c2c(c1)cc1n2CCCNC1=O [Example 234, 7-(4-Nitrophenyl)-1-oxo-2,3,4,5-tetrahydro-[1,4]diazepino[1,2-a]indole-9-carbonitrile] | 0.21 |
| 223.5 | Cc1cc(-c2cc(C#N)cc3cc4n(c23)CCCNC4=O)ccc1F [Example 235, 7-(4-Fluoro-3-methylphenyl)-1-oxo-2,3,4,5-tetrahydro-[1,4]diazepino[1,2-a]indole-9-carbonitrile] | 0.77 |
| 253 | N#Cc1cc(-c2ccc(Cl)cc2Cl)c2c(c1)cc1n2CCCNC1=O [Example 236, 7-(2,4-Dichlorophenyl)-1-oxo-2,3,4,5-tetrahydro-[1,4]diazepino[1,2-a]indole-9-carbonitrile] | 0.13 |
